According to the NIST ThermoML archive (doi:10.1016/j.jct.2004.09.002):
Numbers after ± are expanded uncertainties.

Legend:
[1] = 293.15 K; 101.33 kPa; Liquid; Vibrating tube method
[2] = refractive index (Na D-line) (dimensionless); conditions: 293.15 K; 101.33 kPa; Liquid; Standard Abbe refractometry
[3] = Boiling temperature at pressure P; conditions: 101.33 kPa; Liquid; Fischer boiling point apparatus

Row | mass density [1] | refractive index [2] | Boiling temperature at pressure P [3] | Structure (SMILES)
1 | 957.6 ± 0.5 kg/m3 | 1.3982 ± 0.0012 | – | CCCC(=O)O [butanoic acid]
2 | 970.3 ± 1 kg/m3 | 1.4434 ± 0.0013 | 177.30 ± 0.2 °C | CC(=O)OC1CCCCC1 [cyclohexyl ethanoate]
3 | – | 1.3324 ± 0.0012 | 100.1 ± 0.2 °C | O [water]
